Data as given in US20260048060A1, “POLYCYCLIC THYROID HORMONE b RECEPTOR AGONIST AND USE THEREOF” (CASCADE PHARMACEUTICALS, INC., priority 2022, published 2026).

Legend:
THRβ [1] = molecular target: T1, THRβ (Homo sapiens, UniProt P10828); assay: Reporter gene (GAL4-THRβ-LBD / Dual-Glo luciferase) agonist activity assay in HEK293T cells; format: cell-based; details: ratio of reporter gene EC50 values THRα/THRβ
T1 construct: expressed in transfected cells; host or cells: HEK293T
T1 sequence (P10828 217-461): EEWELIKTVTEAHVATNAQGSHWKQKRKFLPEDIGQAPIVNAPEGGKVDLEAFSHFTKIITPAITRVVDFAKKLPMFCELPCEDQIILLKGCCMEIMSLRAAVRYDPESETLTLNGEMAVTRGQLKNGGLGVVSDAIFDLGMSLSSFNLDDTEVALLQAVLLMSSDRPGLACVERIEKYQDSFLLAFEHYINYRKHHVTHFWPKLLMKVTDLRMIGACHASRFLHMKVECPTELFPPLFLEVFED
From the text: Experimental Example 1: Detection of THRα and THRβ Agonist Activities of Compounds Based on Reporter Gene Activity Assay Method
1.1 Construction and Preparation of Plasmids pGAL4-THR-LBD and pG5-Luc
The pGAL4-THRα-LBD and pGAL4-THRβ-LBD plasmids used in the reporter gene assay system were constructed by a conventional molecular cloning method comprising the following main steps: the cDNA sequences of THRα (NM_003250) and THRβ (NM_000461) corresponding to the amino acid sequences of THRα (163-407AA) and THRβ (217-461AA) were inserted into the BamHI and NotI enzyme digestion sites of the pGAL4 vector by the PCR technique respectively to obtain the pGAL4-THRα-LBD and pGAL4-THRβ-LBD plasmids; the pG5-Luc (#E249A) and pRL-TK (#E2241) plasmids were purchased from Promega; the plasmids were transfected into the E. coli DH5α by the CaCl2 method, and after further culture and amplification, the plasmids were purified by Plasmid Extraction Kits (TIANGEN, #D107) to obtain the corresponding plasmid DNAs.
1.2 Co-Transfection of Plasmids into HEK293T Cells and Treatment with Compounds
The HEK293T cells were inoculated into a 96-well plate at a density of 1×10^4/well the day before plasmid transfection. Cell transfection was conducted according to the instructions of the transfection reagent FuGENE® HD (Promega, #E2311). The main steps were as follows: taking one well as an example here, the plasmids pGAL4-THRα-LBD or pGAL4-THRβ-LBD, pG5-Luc, and pRL-TK were added in the proportions of 20 ng, 50 ng, and 5 ng to 10 μL of Opti-MEM™ I medium (Gibco, #11058021) and mixed well; subsequently, 0.25 uL of FuGENE® HD was added, mixed well, and then left at room temperature for 5 min; afterwards, 10 μL of the mixture was added to the cell wells containing 100 μL of culture medium. After cell co-transfection for 6 h, the compound was diluted in a 3-fold gradient with dimethyl sulfoxide at the highest concentration of 1 uM. The compound was added to the cell culture medium at a total of 10 concentrations for treatment for 24 h. There were a total of two duplicate wells for each concentration. Triiodothyronine (T3) was used as the positive control.
1.3 Dual-Glo Luciferase Assay
After the cells were treated with the compound for 24 h, the cells were assayed according to the instructions of Dual-Glo® Luciferase Assay System (Promega, #E2940). The main steps were as follows: 50 μL of culture medium was aspirated from each well and discarded, and then 50 μL of Dual-Glo® Luciferase reagent was added and oscillated at room temperature for 10 min; 80 μL of lysis reaction solution was measured into a white opaque optiPlate-96-well plate, and the luminescence signal value (Firefly-Luc) of the Firefly luciferase was detected using an MD i3x multi-mode microplate reader; 40 μL of Dual-Glo® Stop & Glo® reagent was then added, and oscillated at room temperature for 10 min; the luminescence signal value (Renilla-Luc) of the Renilla luciferase was then detected using an MD i3x multi-mode microplate reader. The Firefly-Luc/Renilla-Luc ratio was used as the activation activity of the compound against THR, and the ratio in the solvent DMSO group was used for normalization; the dose-response curve was fitted with four parameters using the GraphPad Prism6.0 software, and the EC50 value was calculated.

THRβ [2] = molecular target: T2, THRβ (Homo sapiens, UniProt P10828); assay: Time-resolved FRET (THR-FRET) agonist activity assay, GST-tagged THRβ LBD with SRC2 polypeptide; format: biochemical; details: ratio of THR-FRET EC50 values THRα/THRβ
T2 construct: made in house; host or cells: E. coli BL21 (DE3)
T2 sequence (P10828 217-461 limits assumed): T1 sequence (P10828 217-461)
From the text: Experimental Example 2: Detection of Agonist Activities of Compounds Against THRα/β Based on Time-Resolved Fluorescence Resonance Energy Transfer (THR-FRET)
By visiting NCBI, the THRα/β LBD domain sequences were found. The pET21-His-GST-dLBT-THRα LBD and pET21-His-GST-dLBT-THRβ LBD overexpression vectors were constructed by the fusion method, and sequenced to confirm the accuracy of the sequences.
The correctly sequenced THRα LBD and THRβ LBD overexpression vectors were transfected into E. coli cells BL21 (DE3), and spread on an agar plate with ampicillin. Monoclones were picked out and amplified in an LB medium, and transferred into 1 L LB at a ratio of 1:100 for large-scale culture. When the OD value was at 0.8 to 1.2, 0.5 mM isopropyl-beta-D-thiogalactopyranoside (IPTG) was added, and induced overnight at 18° C. The bacteria were harvested, disrupted, and purified via the GST column and the molecular sieve to obtain two proteins His-GST-dLBT-THRα LBD and His-GST-dLBT-THRβ LBD.
The proteins were taken out from a refrigerator at −80° C. The proteins with the GST-tagged THRα/β LBD domain and the Eu-labelled GST antibodies were thawed slowly on ice, and an assay buffer containing a final concentration of 5 mM dithiothreitol (DTT) was formulated.
The starting concentration of the compound was 100 μM (in DMSO). The compound (100 μM in DMSO) was subjected to 3-fold isogradient dilution with DMSO to obtain a total of 11 isogradient concentrations. Subsequently, the above compounds at the isogradient concentration were further subjected to 50-fold dilution with an assay buffer containing 5 mM DTT.
The final concentrations of all components were calculated based on a system with a final volume of 20 μL per well. To 18 μL of assay buffer containing 5 mM DTT, the GST-tagged THRα/β proteins, the SRC2 ([…]) polypeptide, XL665 (Cisobio, #610SAXLB), and the Eu-labeled GST antibody were added, and the final concentrations were 2 nM, 200 nM, 0.05 nM, and 7.6 nM respectively to formulate 18 μL of reaction mixture of the proteins, polypeptide, and antibody per well.
18 μL of reaction mixture and 2 μL of diluted compound were added into an optiplate-384-well plate, and reacted at room temperature for 24 h.
The plate was read using an MD i3X multi-mode microplate reader with the excitation and emission wavelengths of 340 nm and 665 nm, respectively. The intensity of light at a wavelength of 616 nm generated by europium excited by 340 nm wavelength light from the MD i3X multi-mode microplate reader was used as the background. According to the different activation degrees of different compounds against THRα and THRβ, the intensity of the emission light at a wavelength of 665 nm generated by exciting XL665 with the exciting light at a wavelength of 616 nm was varied. The intensity ratio between these two light wavelengths (665 nm, 616 nm) was used as the activation activity of the compound against THRα or THRβ, and the ratio in the solvent DMSO group was used for normalization. The dose-response curve was fitted with four parameters using the GraphPad Prism 6.0 software, and the EC50 value was calculated.

Row | SMILES | Selectivity (THRα/THRβ) (THRβ [1]) | Selectivity (THRα/THRβ) (THRβ [2])
1 | [2H]C([2H])([2H])NC(=O)c1ccccc1OCc1c(Br)cc(-n2nc(C(F)F)c(=O)[nH]c2=O)cc1Br [Compound 109] | † (†: 5 ≥ THRα/β;) | †† (††: 10 ≥ THRα/β;)
2 | [2H]C(Oc1ccccc1C(=O)NC([2H])([2H])[2H])c1c(Br)cc(-n2nc(C(F)F)c(=O)[nH]c2=O)cc1Br (stereo not shown) [Compound 110] | † (†: 5 ≥ THRα/β;) | †† (††: 10 ≥ THRα/β;)
3 | [2H]C([2H])([2H])NC(=O)c1ccccc1OCc1c(Br)cc(-n2nc(C([2H])(F)F)c(=O)[nH]c2=O)cc1Br [Compound 112] | † (†: 5 ≥ THRα/β;) | †† (††: 10 ≥ THRα/β;)
4 | [2H]C(Oc1ccccc1C(=O)NC([2H])([2H])[2H])c1c(Br)cc(-n2nc(C([2H])(F)F)c(=O)[nH]c2=O)cc1Br (stereo not shown) [Compound 113] | † (†: 5 ≥ THRα/β;) | †† (††: 10 ≥ THRα/β;)

Now from value to compound:

Row | Selectivity (THRα/THRβ) (THRβ [1]) | Selectivity (THRα/THRβ) (THRβ [2]) | SMILES
5 | † (†: 5 ≥ THRα/β;) | †† (††: 10 ≥ THRα/β;) | [2H]C(Oc1ccccc1C(=O)NC)c1c(Br)cc(-n2nc(C(F)F)c(=O)[nH]c2=O)cc1Br (stereo not shown) [Compound 106]
6 | † (†: 5 ≥ THRα/β;) | †† (††: 10 ≥ THRα/β;) | [2H]C(F)(F)c1nn(-c2cc(Br)c(COc3ccccc3C(=O)NC)c(Br)c2)c(=O)[nH]c1=O [Compound 107]
7 | † (†: 5 ≥ THRα/β;) | †† (††: 10 ≥ THRα/β;) | [2H]C([2H])(Oc1ccccc1C(=O)NC)c1c(Br)cc(-n2nc(C(F)F)c(=O)[nH]c2=O)cc1Br [Compound 108]
8 | † (†: 5 ≥ THRα/β;) | †† (††: 10 ≥ THRα/β;) | [2H]C(Oc1ccccc1C(=O)NC)c1c(Br)cc(-n2nc(C([2H])(F)F)c(=O)[nH]c2=O)cc1Br (stereo not shown) [Compound 111]
